{"source": "ChEMBL document CHEMBL2311459", "about": "“Naphthyridinone (NTD) integrase inhibitors: N1 protio and methyl combination substituent effects with C3 amide groups” (Bioorg Med Chem Lett, 2013)", "data": [{"test_system": "Human immunodeficiency virus", "test": "Antiviral activity against HIV in presence of 40 mg/mL of purified human serum albumin", "type": "functional, organism-based", "conditions": "Human immunodeficiency virus 1", "units": {"IC50": "nM"}, "values": [{"smiles": "Cn1c(=O)c(C(=O)NCCCN2CCCC2=O)c(O)c2ncc(Cc3ccc(F)cc3)cc21", "IC50": 15}, {"smiles": "Cn1c(=O)c(C(=O)NCCN2CCOCC2)c(O)c2ncc(Cc3ccc(F)cc3)cc21", "IC50": 23}, {"smiles": "CC(=O)NCCNC(=O)c1c(O)c2ncc(Cc3ccc(F)cc3)cc2n(C)c1=O", "IC50": 12}, {"smiles": "CN(CCNC(=O)c1c(O)c2ncc(Cc3ccc(F)cc3)cc2[nH]c1=O)S(C)(=O)=O", "IC50": 49}, {"smiles": "O=C(NC1CCS(=O)(=O)CC1)c1c(O)c2ncc(Cc3ccc(F)cc3)cc2[nH]c1=O", "IC50": 170}, {"smiles": "CSCCNC(=O)c1c(O)c2ncc(Cc3ccc(F)cc3)cc2[nH]c1=O", "IC50": 256}, {"smiles": "C[C@@H](CO)NC(=O)c1c(O)c2ncc(Cc3ccc(F)cc3)cc2[nH]c1=O", "IC50": 19}, {"smiles": "CC(C)(CO)NC(=O)c1c(O)c2ncc(Cc3ccc(F)cc3)cc2[nH]c1=O", "IC50": 19}, {"smiles": "C[C@@H](O)CNC(=O)c1c(O)c2ncc(Cc3ccc(F)cc3)cc2[nH]c1=O", "IC50": 282}, {"smiles": "CC(C)(CO)CNC(=O)c1c(O)c2ncc(Cc3ccc(F)cc3)cc2[nH]c1=O", "IC50": 41}]}, {"test_system": "Human immunodeficiency virus", "test": "Antiviral activity against HIV infected in human MT4 cells", "type": "functional, organism-based", "conditions": "Human immunodeficiency virus 1, MT4", "units": {"IC50": "nM"}, "values": [{"smiles": "Cn1c(=O)c(C(=O)NCCN2CCOCC2)c(O)c2ncc(Cc3ccc(F)cc3)cc21", "IC50": 64}, {"smiles": "CC(=O)NCCNC(=O)c1c(O)c2ncc(Cc3ccc(F)cc3)cc2n(C)c1=O", "IC50": 22}]}, {"test_system": "Human immunodeficiency virus", "test": "Antiviral activity against HIV", "type": "functional, organism-based", "conditions": "Human immunodeficiency virus 1", "units": {"IC50": "nM"}, "values": [{"smiles": "Cn1c(=O)c(C(=O)NCCCN2CCCC2=O)c(O)c2ncc(Cc3ccc(F)cc3)cc21", "IC50": 2}, {"smiles": "Cn1c(=O)c(C(=O)NCCN2CCOCC2)c(O)c2ncc(Cc3ccc(F)cc3)cc21", "IC50": 4}, {"smiles": "CC(=O)NCCNC(=O)c1c(O)c2ncc(Cc3ccc(F)cc3)cc2n(C)c1=O", "IC50": 2}, {"smiles": "CN(CCNC(=O)c1c(O)c2ncc(Cc3ccc(F)cc3)cc2[nH]c1=O)S(C)(=O)=O", "IC50": 9}, {"smiles": "O=C(NC1CCS(=O)(=O)CC1)c1c(O)c2ncc(Cc3ccc(F)cc3)cc2[nH]c1=O", "IC50": 48}, {"smiles": "CSCCNC(=O)c1c(O)c2ncc(Cc3ccc(F)cc3)cc2[nH]c1=O", "IC50": 5}, {"smiles": "C[C@@H](CO)NC(=O)c1c(O)c2ncc(Cc3ccc(F)cc3)cc2[nH]c1=O", "IC50": 6}, {"smiles": "CC(C)(CO)NC(=O)c1c(O)c2ncc(Cc3ccc(F)cc3)cc2[nH]c1=O", "IC50": 2}, {"smiles": "C[C@@H](O)CNC(=O)c1c(O)c2ncc(Cc3ccc(F)cc3)cc2[nH]c1=O", "IC50": 7}, {"smiles": "CC(C)(CO)CNC(=O)c1c(O)c2ncc(Cc3ccc(F)cc3)cc2[nH]c1=O", "IC50": 4}]}, {"target": "Human immunodeficiency virus type 1 integrase (Human immunodeficiency virus 1, UniProt Q7ZJM1)", "sequence (Q7ZJM1 whole entry)": "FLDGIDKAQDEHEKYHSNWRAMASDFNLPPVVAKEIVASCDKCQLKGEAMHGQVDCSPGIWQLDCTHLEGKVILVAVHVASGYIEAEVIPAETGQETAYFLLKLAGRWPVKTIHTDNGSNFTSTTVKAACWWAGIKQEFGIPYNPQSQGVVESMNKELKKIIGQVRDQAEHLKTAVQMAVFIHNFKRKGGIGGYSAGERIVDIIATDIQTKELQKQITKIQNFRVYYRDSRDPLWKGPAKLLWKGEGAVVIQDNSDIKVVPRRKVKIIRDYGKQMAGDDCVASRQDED", "test": "Inhibition of HIV1 integrase strand transfer activity", "conditions": "not given", "units": {"IC50": "nM"}, "values": [{"smiles": "Cn1c(=O)c(C(=O)NCCCN2CCCC2=O)c(O)c2ncc(Cc3ccc(F)cc3)cc21", "IC50": 16}, {"smiles": "Cn1c(=O)c(C(=O)NCCN2CCOCC2)c(O)c2ncc(Cc3ccc(F)cc3)cc21", "IC50": 13}, {"smiles": "CC(=O)NCCNC(=O)c1c(O)c2ncc(Cc3ccc(F)cc3)cc2n(C)c1=O", "IC50": 5}, {"smiles": "CN(CCNC(=O)c1c(O)c2ncc(Cc3ccc(F)cc3)cc2[nH]c1=O)S(C)(=O)=O", "IC50": 4}, {"smiles": "O=C(NC1CCS(=O)(=O)CC1)c1c(O)c2ncc(Cc3ccc(F)cc3)cc2[nH]c1=O", "IC50": 9}, {"smiles": "CSCCNC(=O)c1c(O)c2ncc(Cc3ccc(F)cc3)cc2[nH]c1=O", "IC50": 5}, {"smiles": "C[C@@H](CO)NC(=O)c1c(O)c2ncc(Cc3ccc(F)cc3)cc2[nH]c1=O", "IC50": 4}, {"smiles": "CC(C)(CO)NC(=O)c1c(O)c2ncc(Cc3ccc(F)cc3)cc2[nH]c1=O", "IC50": 3}, {"smiles": "C[C@@H](O)CNC(=O)c1c(O)c2ncc(Cc3ccc(F)cc3)cc2[nH]c1=O", "IC50": 6}, {"smiles": "CC(C)(CO)CNC(=O)c1c(O)c2ncc(Cc3ccc(F)cc3)cc2[nH]c1=O", "IC50": 4}]}, {"test_system": "not listed separately", "test": "Therapeutic index, ratio of cytotoxicity against human MT4 cells to antiviral activity against HIV", "type": "cell-based", "conditions": "read-out: TI", "values": [{"smiles": "Cn1c(=O)c(C(=O)NCCN2CCOCC2)c(O)c2ncc(Cc3ccc(F)cc3)cc21", "selectivity ratio": 165}, {"smiles": "CC(=O)NCCNC(=O)c1c(O)c2ncc(Cc3ccc(F)cc3)cc2n(C)c1=O", "selectivity ratio": 807}]}]}
